This note sets out measurements from ChEMBL document CHEMBL4680251, “Discovery of a 2-pyridinyl urea-containing compound YD57 as a potent inhibitor of apoptosis signal-regulating kinase 1 (ASK1)” (Eur J Med Chem, 2020).

For orientation: IC50 means the concentration needed to halve the response being measured.

Experiment [1] has as its system HepG2. Nature of the experiment: Induction of cell cycle arrest in human HepG2 cells assessed as accumulation at S phase at 8 uM incubated for 24 hrs by propidium iodide staining based flow cytometry (reference value: 33.27%). It counts as functional. Background: Flow cytometry measures light scatter and fluorescence of single cells or particles in a stream.
Experiment [2] addresses CDK3/Cyclin E (Homo sapiens, UniProt Q00526). Nature of the experiment: Inhibition of full length human recombinant CDK3/Cyclin E using histone H1 as substrate incubated for 40 mins in presence of [gamma-33ATP] by radiometric scintillation counting analysis. It counts as protein-complex assay.
Experiment [3] relates to HepG2. As to the kind of experiment: Induction of cell cycle arrest in human HepG2 cells assessed as accumulation at S phase at 4 uM incubated for 24 hrs by propidium iodide staining based flow cytometry (reference value: 33.27%). It counts as functional.
The test system of experiment [4] is HepG2. Nature of the experiment: Induction of cell cycle arrest in human HepG2 cells assessed as accumulation at S phase at 1 uM incubated for 24 hrs by propidium iodide staining based flow cytometry (reference value: 33.27%). It counts as functional.
Experiment [5] has as its system HepG2. As to the kind of experiment: Induction of cell cycle arrest in human HepG2 cells assessed as accumulation at G0/G1 phase at 16 uM incubated for 24 hrs by propidium iodide staining based flow cytometry (reference value: 38.34%). It counts as functional.
Experiment [6] concerns HepG2. As to the kind of experiment: Induction of cell cycle arrest in human HepG2 cells assessed as accumulation at G2/M phase at 8 uM incubated for 24 hrs by propidium iodide staining based flow cytometry (reference value: 33.49%). It counts as functional.
Experiment [7] deals with T1, Mitogen-activated protein kinase kinase kinase 6 (Homo sapiens, UniProt O95382).
T1 sequence (O95382 whole entry): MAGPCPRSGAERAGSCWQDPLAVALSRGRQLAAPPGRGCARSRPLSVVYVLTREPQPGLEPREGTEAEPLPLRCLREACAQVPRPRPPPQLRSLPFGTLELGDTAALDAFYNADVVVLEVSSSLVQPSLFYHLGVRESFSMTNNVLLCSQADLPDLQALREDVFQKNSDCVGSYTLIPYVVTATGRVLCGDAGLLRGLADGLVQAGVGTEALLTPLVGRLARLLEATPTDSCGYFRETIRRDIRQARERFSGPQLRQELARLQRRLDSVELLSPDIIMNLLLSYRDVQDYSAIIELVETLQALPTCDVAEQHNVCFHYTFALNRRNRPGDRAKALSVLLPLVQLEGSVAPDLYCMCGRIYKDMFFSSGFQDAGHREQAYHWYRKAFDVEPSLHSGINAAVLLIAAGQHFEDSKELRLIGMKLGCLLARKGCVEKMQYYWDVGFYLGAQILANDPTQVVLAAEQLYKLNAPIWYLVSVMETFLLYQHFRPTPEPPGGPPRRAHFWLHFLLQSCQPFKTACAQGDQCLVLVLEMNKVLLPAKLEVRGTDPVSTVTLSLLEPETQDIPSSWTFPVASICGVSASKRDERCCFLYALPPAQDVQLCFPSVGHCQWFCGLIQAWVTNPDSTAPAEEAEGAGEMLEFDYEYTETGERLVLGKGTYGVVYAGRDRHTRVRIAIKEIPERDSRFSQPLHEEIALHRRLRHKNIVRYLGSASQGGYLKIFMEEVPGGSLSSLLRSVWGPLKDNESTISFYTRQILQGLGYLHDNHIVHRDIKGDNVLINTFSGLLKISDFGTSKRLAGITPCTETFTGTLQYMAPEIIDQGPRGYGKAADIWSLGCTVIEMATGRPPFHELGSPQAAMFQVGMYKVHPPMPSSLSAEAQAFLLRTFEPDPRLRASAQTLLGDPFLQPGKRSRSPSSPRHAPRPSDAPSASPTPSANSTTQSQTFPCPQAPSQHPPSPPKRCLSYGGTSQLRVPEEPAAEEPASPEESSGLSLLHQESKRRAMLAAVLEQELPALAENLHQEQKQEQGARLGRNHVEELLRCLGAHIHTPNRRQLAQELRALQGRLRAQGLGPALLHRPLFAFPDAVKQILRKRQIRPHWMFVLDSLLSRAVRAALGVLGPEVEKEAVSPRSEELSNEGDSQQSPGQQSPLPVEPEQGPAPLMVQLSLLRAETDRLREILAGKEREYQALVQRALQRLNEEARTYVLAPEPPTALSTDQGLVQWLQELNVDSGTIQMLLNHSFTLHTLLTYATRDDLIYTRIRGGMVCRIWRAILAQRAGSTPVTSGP
Nature of the experiment: Inhibition of ASK2 (unknown origin).

Experiment [8] deals with HepG2. As to the kind of experiment: Induction of cell cycle arrest in human HepG2 cells assessed as accumulation at G2/M phase at 16 uM incubated for 24 hrs by propidium iodide staining based flow cytometry (reference value: 33.49%). It counts as functional.
Experiment [9] relates to HepG2. As to the kind of experiment: Induction of cell cycle arrest in human HepG2 cells assessed as accumulation at G2/M phase at 2 uM incubated for 24 hrs by propidium iodide staining based flow cytometry (reference value: 33.49%). It counts as functional.
In experiment [10] the test system is HepG2. As to the kind of experiment: Induction of cell cycle arrest in human HepG2 cells assessed as accumulation at G0/G1 phase at 0.5 uM incubated for 24 hrs by propidium iodide staining based flow cytometry (reference value: 38.34%). It counts as functional.
In experiment [11] the test system is HepG2. Nature of the experiment: Induction of cell cycle arrest in human HepG2 cells assessed as accumulation at S phase at 2 uM incubated for 24 hrs by propidium iodide staining based flow cytometry (reference value: 33.27%). It counts as functional.
The subject of experiment [12] is HepG2. As to the kind of experiment: Induction of cell cycle arrest in human HepG2 cells assessed as accumulation at G2/M phase at 0.5 uM incubated for 24 hrs by propidium iodide staining based flow cytometry (reference value: 33.49%). It counts as functional.
For experiment [13], the system named is HepG2. As to the kind of experiment: Induction of cell cycle arrest in human HepG2 cells assessed as accumulation at G0/G1 phase at 1 uM incubated for 24 hrs by propidium iodide staining based flow cytometry (reference value: 38.34%). It counts as functional.
For experiment [14], the system named is HepG2. Nature of the experiment: Induction of cell cycle arrest in human HepG2 cells assessed as accumulation at G2/M phase at 4 uM incubated for 24 hrs by propidium iodide staining based flow cytometry (reference value: 33.49%). It counts as functional.
Experiment [15] is described as follows: Inhibition of human full length recombinant CDK9/cyclin T1 using KTFCGTPEYLAPE as substrate incubated for 40 mins in presence of [gamma-33ATP] by radiometric scintillation counting analysis.
Experiment [16] deals with HepG2. Nature of the experiment: Induction of cell cycle arrest in human HepG2 cells assessed as accumulation at G2/M phase at 1 uM incubated for 24 hrs by propidium iodide staining based flow cytometry (reference value: 33.49%). It counts as functional.
Experiment [17] concerns HepG2. Nature of the experiment: Induction of cell cycle arrest in human HepG2 cells assessed as accumulation at G0/G1 phase at 4 uM incubated for 24 hrs by propidium iodide staining based flow cytometry (reference value: 38.34%). It counts as functional.
For experiment [18], the target named is CDK2/Cyclin A2 (Homo sapiens, UniProt P24941). As to the kind of experiment: Inhibition of full length human recombinant CDK2/Cyclin A using histone H1 as substrate incubated for 40 mins in presence of [gamma-33ATP] by radiometric scintillation counting analysis. It counts as protein-complex assay.

Chain of CDK3/Cyclin E (P24864 whole entry): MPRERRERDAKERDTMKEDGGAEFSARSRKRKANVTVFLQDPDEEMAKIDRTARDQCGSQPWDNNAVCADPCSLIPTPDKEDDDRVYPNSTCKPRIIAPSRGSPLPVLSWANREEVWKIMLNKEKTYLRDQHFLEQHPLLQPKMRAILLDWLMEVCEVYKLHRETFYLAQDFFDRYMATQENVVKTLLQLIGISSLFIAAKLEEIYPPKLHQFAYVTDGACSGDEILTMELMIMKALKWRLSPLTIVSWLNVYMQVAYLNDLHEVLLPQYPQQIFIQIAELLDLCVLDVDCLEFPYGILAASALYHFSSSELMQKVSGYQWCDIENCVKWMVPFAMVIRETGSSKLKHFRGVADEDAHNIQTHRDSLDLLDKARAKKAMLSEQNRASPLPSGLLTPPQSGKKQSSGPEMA
Chain of CDK3/Cyclin E (Q00526 whole entry): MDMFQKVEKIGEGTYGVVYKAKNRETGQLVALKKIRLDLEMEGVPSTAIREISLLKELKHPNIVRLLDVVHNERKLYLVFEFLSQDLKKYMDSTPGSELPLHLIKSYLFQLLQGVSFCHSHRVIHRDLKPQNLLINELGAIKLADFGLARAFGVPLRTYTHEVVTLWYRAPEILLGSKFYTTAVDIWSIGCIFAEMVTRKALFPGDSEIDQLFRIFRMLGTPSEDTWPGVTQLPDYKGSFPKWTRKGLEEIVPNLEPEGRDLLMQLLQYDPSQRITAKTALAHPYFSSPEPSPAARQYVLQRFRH

For `C[C@H](CO)n1cnnc1-c1cccc(NC(=O)Nc2cc3ccccn3n2)n1`, the Activity in [1] is 8.95%; in [3], 7.9%; in experiment [4], 11.7%; in experiment [5] it was 69.77%; in experiment [6], 35.02%; in experiment [8], 32.64%. Besides, the Activity in [9] was found to be 34.32%; in experiment [10] it was 46.22%; in experiment [11], 7.15%; in experiment [12], 27.33%; in experiment [13], 60.13%; in experiment [14], 34.25%. The Activity is 30.59% in experiment [16] and 66.33% in [17]. For the same compound, the 50% inhibitory concentration (IC50) in experiment [2] amounted to 117 nM; in [7], 5290 nM; in experiment [15], 94.2 nM; in experiment [18], 352 nM.
